Data as given in patent US9040523B2, “Antifungal 5,6-dihydro-4H-pyrrolo[1,2-α][1,4]-benzodiazepines and 6H-pyrrolo[1,2-α][1,4]benzodiazepines substituted with benzene derivatives” (JANSSEN PHARMACEUTICA NV, priority 2010, dated 2015).

Tests used:
CYP3A4 = CYP3A4 (Homo sapiens, UniProt P08684); test: Cytochrome P450 inhibition, Protocol A, cDNA expressed proteins, fluorogenic substrates; assay type: in vitro ADME; details: % inhibition at 10 μM, cDNA expressed protein; for hCYP3A4_BFC_Pct_Inh: substrate BFC; for hCYP3A4_BQ_Pct_Inh: substrate BQ; for hCYP3A4_DBF_Pct_Inh: substrate DBF
Experimental: (§1) All fluorogenic based assays were performed in Black Costar 96-well plates according to Crespi et al 1997 with minor modifications (Crespi C L, Miller V P & Penman B W (1997). Microtiter plate assays for inhibition of human, drug-metabolizing cytochromes P450. Anal. Biochem. Vol 248, 1898-1900). Assay conditions are outlined in Table 5a. For cytochrome P450 3A4, three different fluorogenic substrates were used. Each reaction mixture consisted of the appropriate concentration of enzyme, NADPH-generating system (“NADPH” means β-nicotinamide adenine dinucleotide phosphate, reduced), substrate in sodium/potassium buffer (pH 7.4). For each cytochrome P450 batch Michealis-Menten kinetics were determined using 11 concentrations.
(§2) Thereafter, further dilutions were made in acetonitrile. […] The compounds were serially diluted to give final concentrations ranging from 1 nM to 10 μM. The reaction mixtures, whereby 1 μL of buffer was replaced by compound solution, were pre-warmed for 5 min at 37° C. and the reaction was initiated by the addition of β-nicotinamide adenine dinucleotide phosphate (NADP+). Reactions were terminated by addition of stopping reagent and the fluorescence was measured using a Fluoroscan (Labsystems, Brussel, Belgium).
(§3) In Table 5a, the following abbreviations were used: 3-cyano-7-ethocycoumarin (CEC), 7-methoxy-4-trifluoromethylcoumarin (MFC), 3-[2-(N,N-diethyl-N-methylamino)ethyl]-7-methoxy-4-methylcoumarin (AMMC), 7-benzyloxy-trifluoromethyl coumarin (BFC), 7-benzyloxyquinoline (BQ) and dibenzyl fluorescein (DBF).

CYP1A2 = target: T1, CYP1A2 (Homo sapiens, UniProt P05177); test: Cytochrome P450 inhibition, Protocol A, cDNA expressed proteins, fluorogenic substrate; assay type: in vitro ADME; details: % inhibition at 10 μM; substrate CEC; cDNA expressed protein
T1 sequence (P05177 1-516): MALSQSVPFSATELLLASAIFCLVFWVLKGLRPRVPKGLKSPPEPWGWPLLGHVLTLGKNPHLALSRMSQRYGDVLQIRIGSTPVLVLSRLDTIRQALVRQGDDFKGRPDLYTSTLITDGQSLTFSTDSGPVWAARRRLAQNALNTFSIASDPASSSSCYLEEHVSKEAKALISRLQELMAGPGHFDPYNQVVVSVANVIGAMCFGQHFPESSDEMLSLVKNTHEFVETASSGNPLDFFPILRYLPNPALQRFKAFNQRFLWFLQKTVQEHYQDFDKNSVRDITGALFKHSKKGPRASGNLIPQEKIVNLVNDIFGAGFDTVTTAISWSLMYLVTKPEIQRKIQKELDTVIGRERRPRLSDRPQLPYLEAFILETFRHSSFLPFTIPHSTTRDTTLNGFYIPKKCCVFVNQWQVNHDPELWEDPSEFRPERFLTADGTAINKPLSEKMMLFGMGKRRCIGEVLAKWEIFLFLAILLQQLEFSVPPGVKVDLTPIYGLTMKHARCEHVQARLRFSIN
Experimental: as §1, §2, §3

CYP2C9 = CYP2C9 (Homo sapiens, UniProt P11712); test: as above; assay type: in vitro ADME; details: % inhibition at 10 μM; substrate MFC; cDNA expressed protein
Experimental: as §1, §2, §3

CYP2D6 = CYP2D6 (Homo sapiens, UniProt P10635); test: as above; assay type: in vitro ADME; details: % inhibition at 10 μM; substrate AMMC; cDNA expressed protein
Experimental: as §1, §2, §3

[1] = tested on: Sporothrix schenkii B62482; test: Antifungal activity in vitro (resazurin susceptibility screen), Inf. A; assay type: cell-based; details: Sporothrix, B62482, Sporothrix schenkii B62482; 27 °C, 4 days, resa time 24 hours; highest in-test concentration 64 μM; read-out: Inf. A pIC50 (converted)
Experimental: (§4) The standard susceptibility screen was performed in 96-well plates (U-bottom, Greiner Bio-One). […] These serial dilutions (10 n1) were then spotted onto test-plates that could be stored in the dark at 4° C. for a maximum period of 2 weeks. […] The different fungal species/isolates (Table 3a) were cryopreserved and 1/1000 diluted in medium just prior to use. A standard inoculum of 200 μl containing 10^3 colony-forming unit (cfu) was then added to each well. A positive control (100% growth=fungal culture without antifungal) and a negative control (0% growth ═RPMI-MOPS medium) were included on each plate. […] [table]

Microsporum canis B68128 = test: Antifungal activity in vitro (resazurin susceptibility screen), Inf. B; assay type: cell-based; details: 27 °C, 9 days, resa time 24 hours; for IC50: Microsporum canis, B68128, Microsporum canis B68128, read-out: Inf. B pIC50 (converted)
Experimental: (§5) The standard susceptibility screen was performed in 96-well plates (U-bottom, Greiner Bio-One). […] These serial dilutions (10 n1) were then spotted onto test-plates that could be stored in the dark at 4° C. for a maximum period of 2 weeks. […] A standard inoculum of 200 μl containing 10^3 colony-forming unit (cfu) was then added to each well. A positive control (100% growth=fungal culture without antifungal) and a negative control (0% growth ═RPMI-MOPS medium) were included on each plate.

[2] = tested on: Trichophyton rubrum B68183; test: Antifungal activity in vitro (resazurin susceptibility screen), Inf. C; assay type: cell-based; details: Trichophyton rubrum B68183; 27 °C, 7 days, resa time 24 hours; read-out: Inf. C pIC50 (converted)
Experimental: as §4

[3] = tested on: Candida parapsilosis B66126; test: Antifungal activity in vitro (resazurin susceptibility screen), Inf. D; assay type: cell-based; details: Lodderomyces parapsilosis; Candida parapsilosis B66126; 37 °C, 24 hours, resa time 4 hours; read-out: Inf. D pIC50 (converted)
Experimental: as §5

[4] = tested on: Aspergillus fumigatus B42928; test: Antifungal activity in vitro (resazurin susceptibility screen), Inf. E; assay type: cell-based; details: Aspergillus fumigatus B42928; 27 °C, 48 hours, resa time 17 hours; read-out: Inf. E pIC50 (converted)
Experimental: as §4

[5] = tested on: Cryptococcus neoformans B66663; test: Antifungal activity in vitro (resazurin susceptibility screen), Inf. F; assay type: cell-based; details: 37 °C, 24 hours, resa time 4 hours; for IC50: Cryptococcus neoformans, B66663, Cryptococcus neoformans B66663, read-out: Inf. F pIC50 (converted)
Experimental: as §4

[6] = tested on: Trichophyton mentagrophytes B70554; test: Antifungal activity in vitro (resazurin susceptibility screen), Inf. G; assay type: cell-based; details: Trichophyton mentagrophytes, B70554, Trichophyton mentagrophytes B70554; 27 °C, 7 days, resa time 24 hours; read-out: Inf. G pIC50 (converted)
Experimental: as §5

CYP2C9, sequence (P11712 whole entry): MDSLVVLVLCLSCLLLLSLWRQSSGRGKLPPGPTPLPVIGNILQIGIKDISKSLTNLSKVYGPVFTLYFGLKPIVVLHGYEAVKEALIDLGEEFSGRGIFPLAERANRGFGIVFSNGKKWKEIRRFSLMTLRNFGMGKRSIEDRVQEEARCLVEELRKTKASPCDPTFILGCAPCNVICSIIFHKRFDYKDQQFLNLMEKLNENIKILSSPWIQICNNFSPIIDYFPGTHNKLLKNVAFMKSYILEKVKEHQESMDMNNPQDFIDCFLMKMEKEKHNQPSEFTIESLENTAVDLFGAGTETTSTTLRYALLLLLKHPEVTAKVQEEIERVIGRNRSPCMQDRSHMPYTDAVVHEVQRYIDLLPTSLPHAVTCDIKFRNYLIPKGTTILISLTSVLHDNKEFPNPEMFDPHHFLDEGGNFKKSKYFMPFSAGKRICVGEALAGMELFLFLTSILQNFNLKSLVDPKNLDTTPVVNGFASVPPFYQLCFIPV
CYP2D6, sequence (P10635 whole entry): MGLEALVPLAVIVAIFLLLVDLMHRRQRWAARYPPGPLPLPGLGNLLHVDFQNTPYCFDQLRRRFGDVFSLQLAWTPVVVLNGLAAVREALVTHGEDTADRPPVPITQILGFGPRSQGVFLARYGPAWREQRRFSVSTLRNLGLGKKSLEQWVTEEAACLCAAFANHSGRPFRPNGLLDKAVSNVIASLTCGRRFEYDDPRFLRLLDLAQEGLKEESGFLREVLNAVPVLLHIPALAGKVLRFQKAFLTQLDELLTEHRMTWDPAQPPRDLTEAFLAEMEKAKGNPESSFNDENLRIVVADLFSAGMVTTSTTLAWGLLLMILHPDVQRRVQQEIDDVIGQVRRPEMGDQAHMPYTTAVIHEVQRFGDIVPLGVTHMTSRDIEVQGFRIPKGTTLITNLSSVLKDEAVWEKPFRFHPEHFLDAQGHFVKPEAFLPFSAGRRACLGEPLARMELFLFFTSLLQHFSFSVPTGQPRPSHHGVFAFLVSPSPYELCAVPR
CYP3A4, sequence (P08684 whole entry): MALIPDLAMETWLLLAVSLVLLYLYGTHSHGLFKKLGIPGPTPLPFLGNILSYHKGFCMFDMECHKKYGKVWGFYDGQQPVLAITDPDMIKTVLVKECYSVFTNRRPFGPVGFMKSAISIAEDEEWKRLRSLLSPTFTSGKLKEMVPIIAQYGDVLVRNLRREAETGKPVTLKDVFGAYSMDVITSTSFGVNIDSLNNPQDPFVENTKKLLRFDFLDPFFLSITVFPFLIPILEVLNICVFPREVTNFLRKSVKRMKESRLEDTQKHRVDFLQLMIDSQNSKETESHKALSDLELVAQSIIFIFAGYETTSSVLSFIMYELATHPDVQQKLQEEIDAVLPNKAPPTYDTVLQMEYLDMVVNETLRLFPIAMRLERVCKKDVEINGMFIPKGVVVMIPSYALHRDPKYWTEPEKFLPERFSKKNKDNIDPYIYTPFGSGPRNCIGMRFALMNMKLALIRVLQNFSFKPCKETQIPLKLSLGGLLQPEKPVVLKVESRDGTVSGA

## CC(=O)c1ccc(C2NCc3c(Cl)cccc3-n3cccc32)cc1.Cl (stereo not shown)
CYP3A4
  hCYP3A4_BFC_Pct_Inh: 57%
  hCYP3A4_BQ_Pct_Inh: 57%
  hCYP3A4_DBF_Pct_Inh: 70%
CYP1A2
  hCYP1A2_CEC_Pct_Inh: 12%
CYP2C9
  hCYP2C9_MFC_Pct_Inh: 54%
CYP2D6
  hCYP2D6_AMMC_Pct_Inh: 53%

## CCc1ccc(C2NCc3c(Cl)cccc3-n3cccc32)cc1.Cl (stereo not shown)
CYP3A4
  hCYP3A4_BFC_Pct_Inh: 64%
  hCYP3A4_BQ_Pct_Inh: 57%
  hCYP3A4_DBF_Pct_Inh: 69%
CYP1A2
  hCYP1A2_CEC_Pct_Inh: 48%
CYP2C9
  hCYP2C9_MFC_Pct_Inh: 68%
CYP2D6
  hCYP2D6_AMMC_Pct_Inh: 96%

## CCc1ccc(C2=NCc3ccc(Cl)cc3-n3cccc32)cc1
CYP3A4
  hCYP3A4_BFC_Pct_Inh: 55%
  hCYP3A4_BQ_Pct_Inh: 66%
  hCYP3A4_DBF_Pct_Inh: 70%
CYP1A2
  hCYP1A2_CEC_Pct_Inh: 40%
CYP2C9
  hCYP2C9_MFC_Pct_Inh: 50%
CYP2D6
  hCYP2D6_AMMC_Pct_Inh: 33%

## CC(=O)c1ccc(C2NCc3ccc(Cl)cc3-n3cccc32)cc1 (stereo not shown) [Compound 8, 1-[4-(9-chloro-5,6-dihydro-4H-pyrrolo[1,2-a][1,4]benzodiazepin-4-yl)phenyl]-ethanone]
[1]
  IC50: 31.6 µM
Microsporum canis B68128
  IC50: > 63.1 µM
[2]
  IC50: 2 µM
[3]
  IC50: > 63.1 µM
[4]
  IC50: 12.6 µM
[5]
  IC50: 50.1 µM
[6]
  IC50: 5.01 µM
other
  melting point: 185.4 to 186.9 °C

## CC(=O)c1ccc(C2NCc3c(Cl)cc(Cl)cc3-n3cccc32)cc1 (stereo not shown) [Compound 11, 1-[4-(7,9-dichloro-5,6-dihydro-4H-pyrrolo[1,2-a][1,4]benzodiazepin-4-yl)phenyl]-ethanone]
[1]
  IC50: 50.1 µM
Microsporum canis B68128; Microsporum canis B68128
  Inf. B pIC50: 6.0
[2]
  IC50: 2 µM
[3]
  IC50: > 63.1 µM
[4]
  IC50: > 63.1 µM
[5]; Cryptococcus neoformans B66663
  Inf. F pIC50: 5.2
[6]
  IC50: 5.01 µM
other
  melting point: 204.8 to 206.6 °C

## CC(=O)c1ccc(C2NCc3cc(Cl)cc(Cl)c3-n3cccc32)cc1.Cl (stereo not shown) [Compound 14, 1-[4-(8,10-dichloro-5,6-dihydro-4H-pyrrolo[1,2-a][1,4]benzodiazepin-4-yl)phenyl]-ethanone .HCl]
[1]
  IC50: 25.1 µM
Microsporum canis B68128
  IC50: 2.51 µM
[2]
  IC50: 0.631 µM
[3]
  IC50: > 63.1 µM
[4]
  IC50: > 63.1 µM
[5]
  IC50: 50.1 µM
[6]
  IC50: 25.1 µM
other
  melting point: 259.3 to 264.5 °C

## CS(=O)(=O)c1ccc(C2=NCc3c(F)cccc3-n3cccc32)cc1 [Compound 29, 7-fluoro-4-[4-(methylsulfonyl)phenyl]-6H-pyrrolo[1,2-a][1,4]benzodiazepine]
[1]
  IC50: > 63.1 µM
Microsporum canis B68128
  IC50: 10 µM
[2]
  IC50: 2.51 µM
[3]
  IC50: > 63.1 µM
[4]
  IC50: 50.1 µM
[5]
  IC50: 31.6 µM
[6]
  IC50: 6.31 µM
other
  melting point: 92 to 95 °C

## CS(=O)(=O)c1cccc(C2=NCc3c(Cl)cc(Cl)cc3-n3cccc32)c1 [Compound 31, 7,9-dichloro-4-[3-(methylsulfonyl)phenyl]-6H-pyrrolo[1,2-a][1,4]benzodiazepine]
[1]
  IC50: > 63.1 µM
Microsporum canis B68128
  IC50: > 63.1 µM
[2]
  IC50: > 63.1 µM
[3]
  IC50: > 63.1 µM
[4]
  IC50: > 63.1 µM
[5]
  IC50: > 63.1 µM
[6]
  IC50: > 63.1 µM
other
  melting point: 221.2 to 221.5 °C

## CC(=O)c1ccc(C2=NCc3ccc(Cl)cc3-n3cccc32)cc1 [drawing 86]
CYP3A4
  hCYP3A4_BFC_Pct_Inh: 7%
  hCYP3A4_BQ_Pct_Inh: 50%
  hCYP3A4_DBF_Pct_Inh: 40%
CYP1A2
  hCYP1A2_CEC_Pct_Inh: 21%
CYP2C9
  hCYP2C9_MFC_Pct_Inh: 69%
CYP2D6
  hCYP2D6_AMMC_Pct_Inh: 20%

## CC(=O)c1ccc(C2=NCc3c(Cl)cccc3-n3cccc32)cc1 [drawing 88]
CYP3A4
  hCYP3A4_BFC_Pct_Inh: 2%
  hCYP3A4_BQ_Pct_Inh: 33%
  hCYP3A4_DBF_Pct_Inh: 21%
CYP1A2
  hCYP1A2_CEC_Pct_Inh: 33%
CYP2C9
  hCYP2C9_MFC_Pct_Inh: 82%
CYP2D6
  hCYP2D6_AMMC_Pct_Inh: 18%

## CCc1ccc(C2=NCc3c(Cl)cccc3-n3cccc32)cc1 [drawing 89]
CYP3A4
  hCYP3A4_BFC_Pct_Inh: 45%
  hCYP3A4_BQ_Pct_Inh: 62%
  hCYP3A4_DBF_Pct_Inh: 64%
CYP1A2
  hCYP1A2_CEC_Pct_Inh: 60%
CYP2C9
  hCYP2C9_MFC_Pct_Inh: 41%
CYP2D6
  hCYP2D6_AMMC_Pct_Inh: 52%

## CS(=O)(=O)c1ccc(C2=NCc3c(Cl)cccc3-n3cccc32)cc1 [drawing 90]
CYP3A4
  hCYP3A4_BFC_Pct_Inh: 5%
  hCYP3A4_BQ_Pct_Inh: 17%
  hCYP3A4_DBF_Pct_Inh: 1%
CYP1A2
  hCYP1A2_CEC_Pct_Inh: 5%
CYP2C9
  hCYP2C9_MFC_Pct_Inh: 48%
CYP2D6
  hCYP2D6_AMMC_Pct_Inh: 5%
